# Measurements taken from patent publication US8299056B2 (Signal Pharmaceuticals, LLC, priority 2008, dated 2012).
# Read-outs that look alike come from different tables or passages of the source.
# Biological target: T1, Syk (Homo sapiens, UniProt P43405)
# T1 construct: purchased Carna Biosciences
# Experiment: Syk HTRF assay
# Type: biochemical
# Outline: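 HTRF kinase assay in HEPES pH 7.6 buffer with MgCl2, DTT and Triton X100; start mix of 87.5 μM ATP and 80 nM biotinylated peptide, 1 h at room temperature. EDTA stop, then Eu-anti-phosphotyrosine/streptavidin-DyLight 647 detection, read as 665/615 nm emission ratio.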
# [1] = activity levels A-D, read-out: Activity Level (IC50 in the Syk HTRF assay)
# [2] = read-out: Activity Level (Syk HTRF assay IC50)
# [3] = IC50 activity level, read-out: Activity Level
IC50 [1] [nM],IC50 [2] [nM],IC50 [3] [nM],SMILES
500 to 1000,–,–,"CNC(=O)c1ccc(Nc2nc3cccc(CC4CCNC4)n3n2)cc1 (stereo not shown) [Example 267, N-methyl-4-(5-(pyrrolidin-3-ylmethyl)-[1,2,4]triazolo[1,5-a]pyridin-2-ylamino)benzamide]"
–,0.005 to 250,–,"CN1C(=O)C(C)(C)c2ccc(Nc3nc4cccc(NC5CCOC5)n4n3)cc21 (stereo in doubt) [compound 123, (R)-1,3,3-trimethyl-6-(5-(tetrahydrofuran-3-ylamino)-[1,2,4]triazolo[1,5-a]pyridin-2-ylamino)indolin-2-one]"
–,500 to 1000,–,"CNC(=O)c1ccc(Nc2nc3cccc(-c4ccccc4F)n3n2)cc1 [compound 21, 4-(5-(2-fluorophenyl)-[1,2,4]triazolo[1,5-a]pyridin-2-ylamino)-N-methylbenzamide]"
–,–,0.005 to 250,"NC(=O)c1ccc(Nc2nc3cccc(NC4CCC(N)CC4)n3n2)cc1 (stereo in doubt) [Example 492, trans-4-(5-(4-aminocyclohexylamino)-[1,2,4]triazolo[1,5-a]pyridin-2-ylamino)benzamide]"
–,–,1000 to 10000,"Cc1conc1-c1cccc2nc(Nc3ccccc3)nn12 [Example 435, 5-(4-methylisoxazol-3-yl)-N-phenyl-[1,2,4]triazolo[1,5-a]pyridin-2-amine]"
0.005 to 250,–,–,"FC(F)(F)c1ccc(Nc2nc3cccc(CC4CCNCC4)n3n2)cc1 [Example 395, 5-(piperidin-4-ylmethyl)-N-(4-(trifluoromethyl)phenyl)-[1,2,4]triazolo[1,5-a]pyridin-2-amine]"
–,–,1000 to 10000,"OC(c1cccc2nc(Nc3ccccc3)nn12)C1CCN(Cc2ccccc2)CC1 (stereo not shown) [Example 491, (1-benzylpiperidin-4-yl)(2-(phenylamino)-[1,2,4]triazolo[1,5-a]pyridin-5-yl)methanol]"
–,500 to 1000,–,Nc1cc(Nc2nc3cccc(-c4ccccc4)n3n2)ccn1 [compound 40]
–,–,1000 to 10000,"CN(C)c1cccc2nc(Nc3ccccc3)nn12 [Example 477, N^5,N^5-dimethyl-N^2-phenyl-[1,2,4]triazolo[1,5-a]pyridin-2,5-diamine]"
–,0.005 to 250,–,CN1C(=O)C(C)(C)c2ccc(Nc3nc4cccc(N[C@H]5CC[C@](C)(O)CC5)n4n3)cc21 [compound 110]
–,0.005 to 250,–,"CN1C(=O)C(C)(C)c2ccc(Nc3nc4cccc(CN5CCNC(=O)C5)n4n3)cc21 [Example 136, 1,3,3-trimethyl-6-(5-((3-oxopiperazin-1-yl)methyl)-[1,2,4]triazolo[1,5-a]pyridin-2-ylamino)inolin-2-one]"
0.005 to 250,–,–,"OC1CCC(Cc2cccc3nc(Nc4ccc(C(F)(F)F)cc4)nn23)CC1 (stereo in doubt) [Example 398, trans-4-((2-(4-(trifluoromethyl)phenylamino)-[1,2,4]triazolo[1,5-a]pyridin-5-yl)methyl)cyclohexanol]"
1000 to 10000,–,–,"O[C@H]1CCCN(Cc2cccc3nc(Nc4ccc(C(F)(F)F)cc4)nn23)C1 [Example 300, (S)-1-((2-(4-(trifluoromethyl)phenylamino)-[1,2,4]triazolo[1,5-a]pyridin-5-yl)methyl)piperidin-3-ol]"
–,0.005 to 250,–,"Cc1n[nH]c2cc(Nc3nc4cccc(NC[C@H]5CC[C@H](O)C5)n4n3)ccc12 [Example 181, (1S,3S)-3-((2-(3-methyl-1H-indazol-6-ylamino)-[1,2,4]triazolo[1,5-a]pyridin-5-ylamino)methyl)cyclopentanol]"
–,–,0.005 to 250,"O[C@H]1CC[C@@H](Nc2cccc3nc(Nc4ccc(C(F)(F)F)cc4)nn23)CC1 [Example 453, cis-4-(2-(4-(trifluoromethyl)phenylamino)-[1,2,4]triazolo[1,5-a]pyridin-5-ylamino)cyclohexanol]"
0.005 to 250,–,–,"FC(F)(F)c1ccc(Nc2nc3cccc(-c4cnc5nc[nH]c5c4)n3n2)cc1 [Example 380, 5-(1H-imidazo[4,5-b]pyridin-6-yl)-N-(4-(trifluoromethyl)phenyl)-[1,2,4]triazolo[1,5-a]pyridin-2-amine]"
0.005 to 250,–,–,"Cc1c2ccc(Nc3nc4cccc(N[C@H]5CC[C@@H](O)CC5)n4n3)cc2nn1C [Example 217, cis-4-(2-(2,3-dimethyl-2H-indazol-6-ylamino)-[1,2,4]triazolo[1,5-a]pyridin-5-ylamino)cyclohexanol]"
–,–,1000 to 10000,"c1ccc(Cc2cccc3nc(Nc4ccccc4)nn23)cc1 [Example 506, 5-benzyl-N-phenyl-[1,2,4]triazolo[1,5-a]pyridin-2-amine]"
–,0.005 to 250,–,"CC1(C)C(=O)Nc2cc(Nc3nc4cccc(OC5CCOCC5)n4n3)ccc21 [Example 168, 3,3-dimethyl-6-(5-(tetrahydro-2H-pyran-4-yloxy)-[1,2,4]triazolo[1,5-a]pyridin-2-ylamino)indolin-2-one]"
–,0.005 to 250,–,Cn1ncc2ccc(Nc3nc4cccc(-c5cccc(O)c5)n4n3)cc21 [compound 19]
–,–,0.005 to 250,Cc1cc(Nc2nc3cccc(CN4CCNC(=O)C4)n3n2)cc2c1C(C)(C)C(=O)N2 [Example 546]
–,0.005 to 250,–,"CC1(C)C(=O)Nc2cc(Nc3nc4cccc(CC5CCOCC5)n4n3)ccc21 [Example 176, 3,3-dimethyl-6-(5-((tetrahydro-2H-pyran-4-yl)methyl)-[1,2,4]triazolo[1,5-a]pyridin-2-ylamino)indolin-2-one]"
0.005 to 250,–,–,"O[C@H]1CC[C@@H](Nc2cccc3nc(Nc4cnc5[nH]ccc5c4)nn23)CC1 [Example 297, cis-4-(2-(1H-pyrrolo[2,3-b]pyridin-5-ylamino)-[1,2,4]triazolo[1,5-a]pyridin-5-ylamino)cyclohexanol]"
–,0.005 to 250,–,"Cn1ncc2ccc(Nc3nc4cccc(-c5ccccc5)n4n3)cc21 [compound 54, N-(1-methyl-1H-indazol-6-yl)-5-phenyl-[1,2,4]triazolo[1,5-a]pyridin-2-amine]"

# Further lines, the compound ahead of its results:
SMILES,IC50 [1] [nM],IC50 [2] [nM],IC50 [3] [nM]
"Fc1ccccc1-c1cccc2nc(Nc3ccccc3)nn12 [compound 80, 5-(2-fluorophenyl)-N-phenyl-[1,2,4]triazolo[1,5-a]pyridin-2-amine]",–,1000 to 10000,–
"CNC(=O)c1ccc(Nc2nc3cccc(N4CCCCC4)n3n2)cc1 [Example 247, N-methyl-4-(5-(piperidin-1-yl)-[1,2,4]triazolo[1,5-a]pyridin-2-ylamino)benzamide]",500 to 1000,–,–
"NC(=O)c1cc(Nc2nc3cccc(N[C@H]4CC[C@@H](O)CC4)n3n2)ccc1F [Example 318, cis-2-fluoro-5-(5-(4-hydroxycyclohexylamino)-[1,2,4]triazolo[1,5-a]pyridin-2-ylamino)benzamide]",1000 to 10000,–,–
"O=C1NCc2c1cccc2-c1cccc2nc(Nc3ccccc3)nn12 [Example 499, 4-(2-(phenylamino)-[1,2,4]triazolo[1,5-a]pyridin-5-yl)-isoindolin-1-one]",–,–,1000 to 10000
"Cc1cc(Nc2nc3cccc(NC4CCOCC4)n3n2)cnc1N1CCOCC1 [Example 547, N^2-(5-methyl-6-morpholinopyridin-3-yl)-N^5-(tetrahydro-2H-pyran-4-yl)-[1,2,4]triazolo[1,5-a]pyrridine-2,5-diamine]",–,–,500 to 1000
"c1ccc(Nc2nc3cccc(Nc4ccccn4)n3n2)cc1 [Example 484, N^2-phenyl-N^5-(pyridin-2-yl)-[1,2,4]triazolo[1,5-a]pyridin-2,5-diamine]",–,–,500 to 1000
"CC1(C)C(=O)Nc2cc(Nc3nc4cccc(CN5CCNC(=O)C5)n4n3)ccc21 [Example 172, 3,3-dimethyl-6-(5-((3-oxopiperazin-1-yl)methyl)-[1,2,4]triazolo[1,5-a]pyridin-2-ylamino)indolin-2-one]",–,0.005 to 250,–
"CC1(C)C(=O)Nc2cc(Nc3nc4cccc(N[C@H]5CC[C@H](O)CC5)n4n3)ccc21 (stereo in doubt) [Example 175, trans-6-(5-(4-hydroxycyclohexylamino)-[1,2,4]triazolo[1,5-a]pyridin-2-ylamino)-3,3-dimethylindolin-2-one]",–,0.005 to 250,–
"Cn1ncc2cc(Nc3nc4cccc(CC5CCOCC5)n4n3)ccc21 [Example 550, N-(1-methyl-1H-indazol-5-yl)-5-((tetrahydro-2H-pyran-4-yl)methyl)-[1,2,4]triazolo[1,5-a]pyridin-2-amine]",–,–,0.005 to 250
"c1ccc(-c2cccc3nc(Nc4cncnc4)nn23)cc1 [compound 74, 5-phenyl-N-(pyrimidin-5-yl)-[1,2,4]triazolo[1,5-a]pyridin-2-amine]",–,1000 to 10000,–
"O[C@H]1CC[C@@H](Nc2cccc3nc(Nc4cccc(F)c4)nn23)CC1 [Example 355, cis-4-(2-(3-fluorophenylamino)-[1,2,4]triazolo[1,5-a]pyridin-5-ylamino)cyclohexanol]",0.005 to 250,–,–
"Cc1cc(Nc2nc3cccc(CC4CCOCC4)n3n2)cc2[nH]nc(C)c12 [Example 548, N-(3,4-dimethyl-1H-indazol-6-yl)-5-((tetrahydro-2H-pyran-4-yl)methyl)-[1,2,4]triazolo[1,5-a]pyridin-2-amine]",–,–,0.005 to 250
"CNC(=O)c1ccc(Nc2nc3cccc(Cc4cccc(O)c4)n3n2)cc1 [Example 292, 4-(5-(3-hydroxybenzyl)-[1,2,4]triazolo[1,5-a]pyridin-2-ylamino)-N-methylbenzamide]",0.005 to 250,–,–
"O=C1NCC[C@H]1NCc1cccc2nc(Nc3ccc(C(F)(F)F)cc3)nn12 [Example 205, (R)-3-((2-(4-(trifluoromethyl)phenylamino)-[1,2,4]triazolo[1,5-a]pyridin-5-yl)methylamino)pyrrolidin-2-one]",1000 to 10000,–,–
"Cc1n[nH]c2cc(Nc3nc4cccc(N(C)C5CCOCC5)n4n3)ccc12 [Example 189, N^5-methyl-N^2-(3-methyl-1H-indazol-6-yl)-N^5-(tetrahydro-2H-pyran-4-yl)-[1,2,4]triazolo[1,5-a]pyridin-2,5-diamine]",–,0.005 to 250,–
"NC(=O)c1ccc(Nc2nc3cccc(N[C@H]4CC[C@@H](O)CC4)n3n2)cc1F [Example 347, cis-2-fluoro-4-(5-(4-hydroxycyclohexylamino)-[1,2,4]triazolo[1,5-a]pyridin-2-ylamino)benzamide]",0.005 to 250,–,–
